Experimental data taken from ChEMBL document CHEMBL4828709, “Discovery of 2,4-pyrimidinediamine derivatives as potent dual inhibitors of ALK and HDAC” (Eur J Med Chem, 2021).
Active and inactive are the calls of the source. No cut-off for these calls is given here.

Tests used:
[1] = system: SH-SY5Y; test: Cell cycle arrest in human SH-SY5Y cells assessed as accumulation of cells at G2 phase at 2 uM measured after 24 hrs by PI staining based Flowcytometry method (reference value: 13.23%); format: functional
[2] = target: ALK tyrosine kinase receptor (Homo sapiens, UniProt Q9UM73, G1202R)
[3] = system: A549; test: Potency index, ratio of ceritinib IC50 to test compound IC50 for human A549 cells assessed as inhibition of cell proliferation measured after 72 hrs by CCK8 assay; format: functional
[4] = Potency index, ratio of crizotinib IC50 to test compound IC50 for human SKNBE2 cells harboring wild type ALK assessed as inhibition of cell proliferation measured after 72 hrs by CCK8 assay; format: functional
[5] = target: T1, Histone deacetylase 1 (Homo sapiens, UniProt Q13547); details: Sf9, dose 100.0 nM, time 15.0 min
[6] = target: T1, Histone deacetylase 1; test: biochemical
Description: Inhibition of recombinant human C-terminal His/FLAG-tagged HDAC1 (1 to 482 residues) expressed in Sf9 insect cells using Ac-peptide-AMC as substrate preincubated for 15 mins followed by addition of substrate and trypsin measured by flourescence assay

[7] = system: MDA-MB-231; test: Cell cycle arrest in human MDA-MB-231 cells assessed as accumulation of cells at G2 phase at 4 uM measured after 24 hrs by PI staining based flowcytometry method (reference value: 23.89%); format: functional
[8] = system: SH-SY5Y; test: Induction of apoptosis in human SH-SY5Y cells assessed as necrotic cells at 4 uM measured after 24 hrs by Annexin V-FITC/PI staining based flowcytometry (reference value: 7.81%); format: functional
[9] = target: T2, ALK tyrosine kinase receptor (Homo sapiens, UniProt Q9UM73); test: Inhibition of human ALK in human SH-SY5Y cells assessed as inhibition of Akt phosphorylation at Ser473 residue measured after 24 hrs by Western blot assay; format: cell-based; details: dose 1-4 µM
Target sequence in this assay (Q9UM73 19-1620 limits assumed): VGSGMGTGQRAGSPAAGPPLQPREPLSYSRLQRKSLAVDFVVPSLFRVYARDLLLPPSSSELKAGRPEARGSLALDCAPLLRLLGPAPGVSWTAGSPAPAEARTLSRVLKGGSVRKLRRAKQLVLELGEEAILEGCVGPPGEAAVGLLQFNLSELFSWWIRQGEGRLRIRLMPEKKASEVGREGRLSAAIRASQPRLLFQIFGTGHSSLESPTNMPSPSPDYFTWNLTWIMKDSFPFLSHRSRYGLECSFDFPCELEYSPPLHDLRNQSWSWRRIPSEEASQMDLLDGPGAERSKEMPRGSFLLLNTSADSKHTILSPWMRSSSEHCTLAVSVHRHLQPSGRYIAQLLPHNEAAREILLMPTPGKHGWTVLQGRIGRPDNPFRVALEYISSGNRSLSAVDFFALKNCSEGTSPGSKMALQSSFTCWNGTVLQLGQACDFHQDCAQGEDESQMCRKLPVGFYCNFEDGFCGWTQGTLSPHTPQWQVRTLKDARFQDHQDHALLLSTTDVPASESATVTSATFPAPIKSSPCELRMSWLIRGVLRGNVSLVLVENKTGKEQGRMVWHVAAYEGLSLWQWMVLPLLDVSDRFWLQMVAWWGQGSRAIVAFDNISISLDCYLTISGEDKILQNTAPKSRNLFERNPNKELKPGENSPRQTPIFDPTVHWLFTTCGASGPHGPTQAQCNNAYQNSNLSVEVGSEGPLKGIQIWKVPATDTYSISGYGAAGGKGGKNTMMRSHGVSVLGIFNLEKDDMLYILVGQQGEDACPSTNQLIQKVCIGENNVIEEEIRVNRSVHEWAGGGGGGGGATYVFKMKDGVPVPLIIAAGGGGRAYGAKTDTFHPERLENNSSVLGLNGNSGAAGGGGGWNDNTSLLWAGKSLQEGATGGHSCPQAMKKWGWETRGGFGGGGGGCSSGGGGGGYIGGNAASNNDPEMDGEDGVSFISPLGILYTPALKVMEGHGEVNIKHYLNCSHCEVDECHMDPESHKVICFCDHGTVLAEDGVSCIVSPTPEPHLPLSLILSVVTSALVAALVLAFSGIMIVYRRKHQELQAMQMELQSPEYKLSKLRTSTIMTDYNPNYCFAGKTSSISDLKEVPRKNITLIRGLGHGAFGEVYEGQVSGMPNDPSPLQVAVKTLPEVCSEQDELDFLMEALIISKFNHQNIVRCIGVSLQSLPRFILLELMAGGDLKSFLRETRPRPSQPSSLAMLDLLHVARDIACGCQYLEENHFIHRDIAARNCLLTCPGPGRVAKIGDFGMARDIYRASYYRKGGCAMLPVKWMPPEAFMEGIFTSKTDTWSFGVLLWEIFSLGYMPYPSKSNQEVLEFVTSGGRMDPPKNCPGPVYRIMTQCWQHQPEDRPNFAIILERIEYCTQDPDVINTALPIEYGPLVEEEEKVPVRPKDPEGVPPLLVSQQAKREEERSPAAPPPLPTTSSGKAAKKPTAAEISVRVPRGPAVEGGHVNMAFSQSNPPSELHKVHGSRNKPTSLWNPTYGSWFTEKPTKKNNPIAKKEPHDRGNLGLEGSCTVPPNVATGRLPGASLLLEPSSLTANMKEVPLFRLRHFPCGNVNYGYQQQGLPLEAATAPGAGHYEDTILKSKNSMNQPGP

[10] = system: SH-SY5Y; test: Induction of apoptosis in human SH-SY5Y cells assessed as viable cells at 2 uM measured after 24 hrs by Annexin V-FITC/PI staining based flowcytometry (reference value: 77.05%); format: functional; details: read-out: Activity
[11] = system: MDA-MB-231; test: Cell cycle arrest in human MDA-MB-231 cells assessed as accumulation of cells at S phase at 4 uM measured after 24 hrs by PI staining based flowcytometry method (reference value: 20.81%); format: functional
[12] = system: SH-SY5Y; test: Potency index, ratio of ceritinib IC50 to test compound IC50 for human SH-SY5Y cells harboring ALK F1174L mutant assessed as inhibition of cell proliferation measured after 72 hrs by CCK8 assay; format: functional
[13] = target: T2, ALK tyrosine kinase receptor; test: Inhibition of human ALK in human SH-SY5Y cells assessed as inhibition of ALK phosphorylation at Tyr1278 residue at 4 uM measured after 24 hrs by Western blot assay; format: cell-based
Target sequence in this assay (Q9UM73 19-1620 limits assumed): as above

[14] = target: Histone deacetylase 2 (Homo sapiens, UniProt Q92769)
Description: Inhibition of HDAC2 (unknown origin)

[15] = target: T2, ALK tyrosine kinase receptor
Target sequence in this assay (Q9UM73 whole entry): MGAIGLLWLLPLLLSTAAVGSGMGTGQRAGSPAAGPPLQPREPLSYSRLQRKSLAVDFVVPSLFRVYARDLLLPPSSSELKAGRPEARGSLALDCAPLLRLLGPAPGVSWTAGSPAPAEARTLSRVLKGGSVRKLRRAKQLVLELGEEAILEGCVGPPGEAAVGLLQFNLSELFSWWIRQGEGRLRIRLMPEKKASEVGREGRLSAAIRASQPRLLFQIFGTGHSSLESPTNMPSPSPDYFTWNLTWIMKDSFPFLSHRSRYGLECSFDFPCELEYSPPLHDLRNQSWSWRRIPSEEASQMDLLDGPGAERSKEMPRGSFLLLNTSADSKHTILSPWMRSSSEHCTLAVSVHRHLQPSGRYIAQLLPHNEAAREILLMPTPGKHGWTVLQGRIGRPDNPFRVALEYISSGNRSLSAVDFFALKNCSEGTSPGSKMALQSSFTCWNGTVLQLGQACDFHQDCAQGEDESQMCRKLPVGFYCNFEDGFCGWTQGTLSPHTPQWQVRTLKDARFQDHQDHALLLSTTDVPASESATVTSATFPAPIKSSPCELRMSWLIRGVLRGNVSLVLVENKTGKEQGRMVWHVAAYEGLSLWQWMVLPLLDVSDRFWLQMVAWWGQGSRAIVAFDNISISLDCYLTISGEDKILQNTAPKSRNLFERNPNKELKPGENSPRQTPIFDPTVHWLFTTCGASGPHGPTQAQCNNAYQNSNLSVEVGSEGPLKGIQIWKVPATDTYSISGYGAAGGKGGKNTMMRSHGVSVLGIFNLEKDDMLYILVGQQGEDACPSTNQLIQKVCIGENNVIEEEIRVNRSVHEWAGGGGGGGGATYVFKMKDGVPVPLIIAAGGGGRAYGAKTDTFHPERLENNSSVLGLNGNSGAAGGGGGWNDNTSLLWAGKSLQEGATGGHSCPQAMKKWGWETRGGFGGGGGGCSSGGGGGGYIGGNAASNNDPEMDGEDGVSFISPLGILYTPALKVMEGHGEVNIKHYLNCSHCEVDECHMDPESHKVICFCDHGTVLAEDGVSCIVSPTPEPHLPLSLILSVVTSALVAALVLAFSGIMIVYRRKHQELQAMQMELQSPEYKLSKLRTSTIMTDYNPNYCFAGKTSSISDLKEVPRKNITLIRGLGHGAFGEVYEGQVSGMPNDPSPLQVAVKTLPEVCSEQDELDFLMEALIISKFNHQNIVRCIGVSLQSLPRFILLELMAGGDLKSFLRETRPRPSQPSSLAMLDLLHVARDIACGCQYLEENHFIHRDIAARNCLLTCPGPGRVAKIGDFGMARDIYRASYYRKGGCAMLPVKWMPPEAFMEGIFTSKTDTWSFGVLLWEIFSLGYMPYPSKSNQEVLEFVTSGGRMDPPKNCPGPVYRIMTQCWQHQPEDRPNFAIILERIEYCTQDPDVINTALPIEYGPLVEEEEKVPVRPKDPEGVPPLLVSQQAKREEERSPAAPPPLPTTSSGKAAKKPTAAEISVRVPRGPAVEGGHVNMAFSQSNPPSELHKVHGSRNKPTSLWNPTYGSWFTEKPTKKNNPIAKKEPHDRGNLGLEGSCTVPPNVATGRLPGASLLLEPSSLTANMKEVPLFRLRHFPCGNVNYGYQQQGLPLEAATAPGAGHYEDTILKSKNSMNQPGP
Description: Inhibition of ALK (unknown origin) preincubated for 10 mins followed by addition of substrate and ATP for 25 mins by caliper EZ reader method

[16] = system: MDA-MB-231; test: Induction of apoptosis in human MDA-MB-231 cells assessed as necrotic cells at 2 uM measured after 24 hrs by Annexin V-FITC/PI staining based flowcytometry (reference value: 0.94%); format: functional
[17] = system: SH-SY5Y; test: Antimigratory activity against human SH-SY5Y cells assessed as wound closure at 0.4 uM measured after 48 hrs by cell scratch assay (reference value: 15.1%); format: functional
[18] = system: SH-SY5Y; test: Potency index, ratio of crizotinib IC50 to test compound IC50 for human SH-SY5Y cells harboring ALK F1174L mutant assessed as inhibition of cell proliferation measured after 72 hrs by CCK8 assay; format: functional
[19] = system: SH-SY5Y; test: Induction of apoptosis in human SH-SY5Y cells assessed as late apoptotic cells at 1 uM measured after 24 hrs by Annexin V-FITC/PI staining based flowcytometry (reference value: 14.32%); format: functional
[20] = system: MDA-MB-231; test: Induction of apoptosis in human MDA-MB-231 cells assessed as increase in blue fluorescence intensity at 1 to 4 uM measured after 24 hrs by Hoechst33258 staining based fluorescence microscopy; format: functional, cell-based; details: dose 1-4 µM
[21] = target: Histone deacetylase (Homo sapiens) (UniProt Q13547+O15379+Q9UBN7+Q92769+Q9UQL6+Q8WUI4+Q9BY41+Q96DB2+P56524+Q9UKV0+Q969S8); test: Inhibition of HDAC in human MDA-MB-231 cells assessed as increase of intracellular acetylated histone H3 level at 1 to 4 uM measured after 24 hrs by Western blot assay; format: cell-based; details: dose 1-4 µM
[22] = system: SH-SY5Y; test: Induction of apoptosis in human SH-SY5Y cells assessed as viable cells at 1 uM measured after 24 hrs by Annexin V-FITC/PI staining based flowcytometry (reference value: 77.05%); format: functional; details: read-out: Activity
[23] = target: T2, ALK tyrosine kinase receptor; test: Inhibition of human ALK in human SH-SY5Y cells assessed as inhibition of ALK phosphorylation at Tyr1278 residue measured after 24 hrs by Western blot assay; format: cell-based; details: dose 1-4 µM
Target sequence in this assay (Q9UM73 19-1620 limits assumed): as the sequence (Q9UM73 19-1620 limits assumed) above

[24] = system: MDA-MB-231; test: Cell cycle arrest in human MDA-MB-231 cells assessed as accumulation of cells at S phase at 1 uM measured after 24 hrs by PI staining based flowcytometry method (reference value: 20.81%); format: functional
[25] = system: ALK tyrosine kinase receptor (Homo sapiens), Q9UM73 [G1202R]; test: Potency index, ratio of ceritinib IC50 to test compound IC50 for inhibition of ALK G1202R mutant (unknown origin)
[26] = system: MDA-MB-231; test: Induction of apoptosis in human MDA-MB-231 cells assessed as late apoptotic cells at 1 uM measured after 24 hrs by Annexin V-FITC/PI staining based flowcytometry ( Rvb = 5.28%); format: functional
[27] = system: MDA-MB-231; test: cells; format: functional, cell-based; details: Homo sapiens, MDA-MB-231, 72 h
Description: Antiproliferative activity against human MDA-MB-231 cells assessed as inhibition of cell proliferation measured after 72 hrs by CCK8 assay

[28] = target: T2, ALK tyrosine kinase receptor; test: Inhibition of human ALK in human SH-SY5Y cells assessed as inhibition of Akt phosphorylation at Ser473 residue at 4 uM measured after 24 hrs by Western blot assay; format: cell-based
Target sequence in this assay (Q9UM73 19-1620 limits assumed): as above

[29] = system: MDA-MB-231; test: Induction of apoptosis in human MDA-MB-231 cells assessed as late apoptotic cells at 4 uM measured after 24 hrs by Annexin V-FITC/PI staining based flowcytometry (reference value: 5.28%); format: functional
[30] = organism: Homo sapiens; test: Inhibition of human Aurora kinase at 1 uM
[31] = AUC (0 to infinity) in Sprague-Dawley rat at 1 mg/kg, iv measured for 12 hrs by LC-MS/MS analysis; format: ADME, organism-based; set-up: route intravenous, dose 1 mg/kg, time 12 hrs; details: in vivo
[32] = system: MDA-MB-231; test: Induction of apoptosis in human MDA-MB-231 cells assessed as orange-red fluorescence intensity at 1 to 4 uM measured after 24 hrs by AO/EB staining based fluorescence microscopy; format: functional, cell-based; details: dose 1-4 µM
[33] = organism: Homo sapiens; test: Inhibition of human FLT at 1 uM
[34] = system: SH-SY5Y; test: cells; format: functional, cell-based; details: Homo sapiens, 72 h
Description: Antiproliferative activity against human SH-SY5Y cells harboring ALK F1174L mutant assessed as inhibition of cell proliferation measured after 72 hrs by CCK8 assay

[35] = system: SH-SY5Y; test: Cell cycle arrest in human SH-SY5Y cells assessed as accumulation of cells at G2 phase at 4 uM measured after 24 hrs by PI staining based flowcytometry method (reference value: 13.23%); format: functional
[36] = system: MDA-MB-231; test: Potency index, ratio of ceritinib IC50 to test compound IC50 for human MDA-MB-231 cells assessed as inhibition of cell proliferation measured after 72 hrs by CCK8 assay; format: functional

T1 sequence (Q13547 whole entry): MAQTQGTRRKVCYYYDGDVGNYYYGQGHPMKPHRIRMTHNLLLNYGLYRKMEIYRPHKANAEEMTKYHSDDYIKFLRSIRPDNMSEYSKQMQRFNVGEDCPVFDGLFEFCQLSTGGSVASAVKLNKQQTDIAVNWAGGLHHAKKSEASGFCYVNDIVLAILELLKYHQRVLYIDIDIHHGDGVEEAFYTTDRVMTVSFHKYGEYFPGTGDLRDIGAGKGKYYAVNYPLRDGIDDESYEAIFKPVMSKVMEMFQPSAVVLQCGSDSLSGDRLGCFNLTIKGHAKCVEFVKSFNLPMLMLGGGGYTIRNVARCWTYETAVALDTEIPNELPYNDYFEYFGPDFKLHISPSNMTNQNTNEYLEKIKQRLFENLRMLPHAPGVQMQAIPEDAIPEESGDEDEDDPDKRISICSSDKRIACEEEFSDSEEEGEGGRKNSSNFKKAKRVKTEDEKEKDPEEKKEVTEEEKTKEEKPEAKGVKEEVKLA
Sequence of ALK tyrosine kinase receptor (Homo sapiens), Q9UM73 [G1202R] (Q9UM73 whole entry G1202R): as the sequence (Q9UM73 whole entry) above, with G1202R counted along it
Sequence of ALK tyrosine kinase receptor (Homo sapiens, UniProt Q9UM73, G1202R) (Q9UM73 19-1620 G1202R limits assumed): as the sequence (Q9UM73 19-1620 limits assumed) above, with G1184R counted along it
Sequence of Histone deacetylase 2 (Q92769 whole entry): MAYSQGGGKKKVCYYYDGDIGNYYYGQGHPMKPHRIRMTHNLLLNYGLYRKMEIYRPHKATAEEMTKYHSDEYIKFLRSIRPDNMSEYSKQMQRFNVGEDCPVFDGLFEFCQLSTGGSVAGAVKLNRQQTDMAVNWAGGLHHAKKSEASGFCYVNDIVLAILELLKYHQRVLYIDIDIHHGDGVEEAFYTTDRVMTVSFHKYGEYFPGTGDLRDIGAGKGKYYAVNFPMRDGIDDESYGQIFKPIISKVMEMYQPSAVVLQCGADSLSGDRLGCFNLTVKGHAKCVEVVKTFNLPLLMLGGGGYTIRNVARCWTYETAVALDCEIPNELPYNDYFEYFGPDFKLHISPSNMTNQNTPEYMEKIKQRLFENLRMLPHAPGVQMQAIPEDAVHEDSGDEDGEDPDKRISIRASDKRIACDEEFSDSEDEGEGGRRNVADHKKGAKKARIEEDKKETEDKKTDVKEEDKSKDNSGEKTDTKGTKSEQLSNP

- IC50 [2]: 0.4 nM
- inhibition [5]: 87%
- IC50 [6]: 7.9 nM
- inhibition [9]: Dose-Dependent Effect
- inhibition [13]: Active
- IC50 [14]: 9.3 nM
- IC50 [15]: 2.1 nM
- inhibition [21]: Active
- inhibition [23]: Dose-Dependent Effect
- Ratio IC50 [25]: 10
- IC50 [27]: 460 nM
- inhibition [28]: Active
- inhibition [30]: 95%
- AUC(0-inf) [31]: 205 ng·h/mL
- inhibition [33]: Active
- IC50 [34]: 110 nM
Compound: CC(C)S(=O)(=O)c1ccccc1Nc1nc(Nc2ccc(NC(=O)CCCCCCC(=O)NO)cc2)ncc1Cl
- Activity [1]: 75.94%
- Ratio IC50 [3]: 3
- Ratio IC50 [4]: 3
- Activity [7]: 50.99%
- Activity [8]: 12.95%
- viability at 2 µM [10]: 58.6%
- Activity [11]: 14.37%
- Ratio IC50 [12]: 3
- Activity [16]: 1.68%
- Activity [17]: 2.8%
- Ratio IC50 [18]: 3
- Activity [19]: 21.05%
- Activity [20]: Active
- viability at 1 µM [22]: 87.9%
- Activity [24]: 32.42%
- Activity [26]: 8.79%
- Activity [29]: 14.85%
- Activity [32]: Active
- Activity [35]: 88.07%
- Ratio IC50 [36]: 3
